The values that follow come from US20220009920A1 (GB005, Inc., priority 2020, published 2022).

Test in all cases: Large panel kinase profiling
Holding throughout (assay type): biochemical
Settings in all cases: 1 μM test article, 1 mM ATP

In one assay the target is T1, CDK6/D1 (Homo sapiens, UniProt Q00534).
T1 construct: AssayQuant Technologies, Inc. (ran the panel)
A digest of the protocol: (§1)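 CSox-Sensor fluorescence readout; test article 1 μM, ATP 1 mM, 30° C.; kinetic reads at 1-min intervals, Ex 360/Em 485 nm.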

The target in a further assay is PKN1 (Homo sapiens, UniProt Q16512). A digest of the protocol:
as §1

For the next assay, the target named is T2, NTRK1/TRKA (Homo sapiens, UniProt P04629).
T2 construct: AssayQuant Technologies, Inc. (assay service)
T2 sequence (P04629 33-796): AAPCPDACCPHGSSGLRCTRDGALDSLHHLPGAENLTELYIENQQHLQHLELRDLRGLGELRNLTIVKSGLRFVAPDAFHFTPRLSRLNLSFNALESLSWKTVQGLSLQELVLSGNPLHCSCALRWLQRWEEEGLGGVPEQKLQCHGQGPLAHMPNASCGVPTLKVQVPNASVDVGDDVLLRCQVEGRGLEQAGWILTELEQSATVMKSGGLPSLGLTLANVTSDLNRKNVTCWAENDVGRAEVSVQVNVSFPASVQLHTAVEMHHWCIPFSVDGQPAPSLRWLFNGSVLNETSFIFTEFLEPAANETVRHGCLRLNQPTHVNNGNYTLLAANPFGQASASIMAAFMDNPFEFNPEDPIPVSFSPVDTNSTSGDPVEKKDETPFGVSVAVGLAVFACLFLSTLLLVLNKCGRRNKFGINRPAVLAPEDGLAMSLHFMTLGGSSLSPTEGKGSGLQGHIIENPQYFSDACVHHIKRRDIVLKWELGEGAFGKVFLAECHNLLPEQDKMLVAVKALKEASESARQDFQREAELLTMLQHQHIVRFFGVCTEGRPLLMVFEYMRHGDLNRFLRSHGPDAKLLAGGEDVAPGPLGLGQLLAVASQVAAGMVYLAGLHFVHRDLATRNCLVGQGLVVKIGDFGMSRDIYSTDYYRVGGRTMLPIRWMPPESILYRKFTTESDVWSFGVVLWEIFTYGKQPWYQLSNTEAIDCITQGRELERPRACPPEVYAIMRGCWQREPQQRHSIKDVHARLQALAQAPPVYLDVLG
A digest of the protocol:
as §1

In the next assay the target is T3, MAPKAPK3/MK3 (Homo sapiens, UniProt Q16644).
T3 construct: AssayQuant Technologies, Inc. (service provider)
A digest of the protocol:
as §1

The next assay has as its target T4, BRSK1 (Homo sapiens, UniProt Q8TDC3).
T4 sequence (Q8TDC3 1-778): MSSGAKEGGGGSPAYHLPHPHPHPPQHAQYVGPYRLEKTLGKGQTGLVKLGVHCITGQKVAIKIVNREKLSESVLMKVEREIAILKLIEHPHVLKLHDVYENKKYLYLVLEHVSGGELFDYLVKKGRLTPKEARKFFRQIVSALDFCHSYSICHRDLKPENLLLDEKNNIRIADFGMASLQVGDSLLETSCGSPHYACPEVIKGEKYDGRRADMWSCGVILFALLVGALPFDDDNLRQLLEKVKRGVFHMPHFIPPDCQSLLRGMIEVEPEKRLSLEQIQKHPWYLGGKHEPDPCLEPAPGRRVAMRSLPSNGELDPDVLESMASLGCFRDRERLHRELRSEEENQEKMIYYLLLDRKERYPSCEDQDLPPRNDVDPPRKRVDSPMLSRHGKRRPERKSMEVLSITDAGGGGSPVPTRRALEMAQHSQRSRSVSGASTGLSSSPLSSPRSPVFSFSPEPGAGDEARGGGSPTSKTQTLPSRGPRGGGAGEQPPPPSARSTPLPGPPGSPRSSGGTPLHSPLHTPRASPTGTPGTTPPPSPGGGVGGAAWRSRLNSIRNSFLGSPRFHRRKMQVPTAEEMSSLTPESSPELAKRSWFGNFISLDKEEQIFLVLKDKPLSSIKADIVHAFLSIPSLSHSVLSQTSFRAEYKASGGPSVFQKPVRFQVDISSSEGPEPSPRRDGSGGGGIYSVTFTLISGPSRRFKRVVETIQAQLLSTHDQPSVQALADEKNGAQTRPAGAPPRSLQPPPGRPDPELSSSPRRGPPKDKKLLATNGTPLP
A digest of the protocol: as §1

The target in a further assay is T5, FYNB (Homo sapiens, UniProt P06241).
T5 construct: AssayQuant Technologies, Inc. (service provider)
T5 sequence (P06241 1-534 isoform P06241-2): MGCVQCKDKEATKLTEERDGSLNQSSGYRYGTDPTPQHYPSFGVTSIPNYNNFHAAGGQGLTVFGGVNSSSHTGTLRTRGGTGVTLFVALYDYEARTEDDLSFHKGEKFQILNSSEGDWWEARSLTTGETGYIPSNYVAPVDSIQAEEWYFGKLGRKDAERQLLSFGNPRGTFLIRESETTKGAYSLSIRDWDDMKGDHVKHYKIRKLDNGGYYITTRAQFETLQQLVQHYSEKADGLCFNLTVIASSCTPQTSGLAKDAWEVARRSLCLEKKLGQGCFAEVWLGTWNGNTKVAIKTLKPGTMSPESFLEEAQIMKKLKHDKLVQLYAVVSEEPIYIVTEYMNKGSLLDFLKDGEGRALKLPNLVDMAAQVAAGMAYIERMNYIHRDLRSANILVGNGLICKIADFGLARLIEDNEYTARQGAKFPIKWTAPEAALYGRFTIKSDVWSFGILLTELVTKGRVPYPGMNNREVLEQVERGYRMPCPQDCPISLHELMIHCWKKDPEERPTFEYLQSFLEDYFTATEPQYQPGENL
A digest of the protocol: as §1

The next assay addresses T6, ZAP70 (Homo sapiens, UniProt P43403).
T6 construct: AssayQuant Technologies, Inc. (contract laboratory that ran the panel)
T6 sequence (P43403 1-619): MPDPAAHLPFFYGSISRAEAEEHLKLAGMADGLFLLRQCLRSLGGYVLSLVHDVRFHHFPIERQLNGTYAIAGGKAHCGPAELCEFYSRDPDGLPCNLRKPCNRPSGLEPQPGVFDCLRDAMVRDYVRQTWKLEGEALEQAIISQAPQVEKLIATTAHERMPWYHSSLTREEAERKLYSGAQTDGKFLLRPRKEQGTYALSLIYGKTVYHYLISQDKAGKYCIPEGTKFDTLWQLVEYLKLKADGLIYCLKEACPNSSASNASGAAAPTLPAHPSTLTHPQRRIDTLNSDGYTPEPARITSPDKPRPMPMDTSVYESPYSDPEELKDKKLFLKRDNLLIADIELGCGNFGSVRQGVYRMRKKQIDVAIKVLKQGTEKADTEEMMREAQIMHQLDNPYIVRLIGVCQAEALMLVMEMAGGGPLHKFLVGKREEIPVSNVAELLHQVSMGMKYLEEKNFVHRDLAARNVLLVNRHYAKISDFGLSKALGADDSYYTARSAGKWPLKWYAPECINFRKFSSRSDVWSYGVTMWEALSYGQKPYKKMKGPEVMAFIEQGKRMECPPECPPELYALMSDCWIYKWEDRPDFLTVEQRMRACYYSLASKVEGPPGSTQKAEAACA
A digest of the protocol: as §1

For another assay, the target named is EPHA2 (Homo sapiens, UniProt P29317). A digest of the protocol:
as §1

Another assay concerns the target T7, DDR1 (Homo sapiens, UniProt Q08345).
T7 construct: AssayQuant Technologies, Inc. (service laboratory)
A digest of the protocol: as §1

The next assay has as its target BRAF(V599E) (Homo sapiens, UniProt P15056, V600E). A digest of the protocol: as §1
For another assay, the target named is T8, MAPK1/ERK2 (Homo sapiens, UniProt P28482).
T8 construct: AssayQuant Technologies, Inc. (service provider)
T8 sequence (P28482 whole entry): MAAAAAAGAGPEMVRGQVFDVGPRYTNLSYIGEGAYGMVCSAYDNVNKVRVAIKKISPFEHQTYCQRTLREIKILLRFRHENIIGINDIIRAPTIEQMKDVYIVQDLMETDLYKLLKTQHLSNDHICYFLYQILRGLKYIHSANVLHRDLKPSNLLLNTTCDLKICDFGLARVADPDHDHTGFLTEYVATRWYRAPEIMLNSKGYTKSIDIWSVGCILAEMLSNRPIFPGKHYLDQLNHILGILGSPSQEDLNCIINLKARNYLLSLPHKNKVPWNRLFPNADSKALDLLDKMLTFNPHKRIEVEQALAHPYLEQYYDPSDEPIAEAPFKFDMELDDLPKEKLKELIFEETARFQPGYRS
A digest of the protocol:
as §1

The next assay addresses T9, AURKC/AURC (Homo sapiens, UniProt Q9UQB9).
T9 sequence (Q9UQB9 1-309): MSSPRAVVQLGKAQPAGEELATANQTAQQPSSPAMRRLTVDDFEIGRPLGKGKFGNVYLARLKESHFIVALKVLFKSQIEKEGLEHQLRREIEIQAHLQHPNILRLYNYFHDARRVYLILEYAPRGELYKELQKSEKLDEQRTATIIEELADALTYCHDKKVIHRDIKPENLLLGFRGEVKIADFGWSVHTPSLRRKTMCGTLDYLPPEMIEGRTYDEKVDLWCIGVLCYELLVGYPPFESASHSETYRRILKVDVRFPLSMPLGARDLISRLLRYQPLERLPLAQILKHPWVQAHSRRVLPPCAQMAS
A digest of the protocol:
as §1

T1 sequence (Q00534 whole entry, species assumed): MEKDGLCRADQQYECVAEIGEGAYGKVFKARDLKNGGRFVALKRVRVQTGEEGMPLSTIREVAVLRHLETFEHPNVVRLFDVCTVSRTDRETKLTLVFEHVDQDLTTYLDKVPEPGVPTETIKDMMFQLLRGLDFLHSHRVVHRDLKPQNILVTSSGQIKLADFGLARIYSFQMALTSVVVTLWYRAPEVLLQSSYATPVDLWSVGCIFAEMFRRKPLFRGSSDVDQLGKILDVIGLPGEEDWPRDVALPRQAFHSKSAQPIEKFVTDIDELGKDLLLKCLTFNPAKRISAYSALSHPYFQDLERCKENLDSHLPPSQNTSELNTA
T1 sequence (P24385 whole entry partner, species assumed): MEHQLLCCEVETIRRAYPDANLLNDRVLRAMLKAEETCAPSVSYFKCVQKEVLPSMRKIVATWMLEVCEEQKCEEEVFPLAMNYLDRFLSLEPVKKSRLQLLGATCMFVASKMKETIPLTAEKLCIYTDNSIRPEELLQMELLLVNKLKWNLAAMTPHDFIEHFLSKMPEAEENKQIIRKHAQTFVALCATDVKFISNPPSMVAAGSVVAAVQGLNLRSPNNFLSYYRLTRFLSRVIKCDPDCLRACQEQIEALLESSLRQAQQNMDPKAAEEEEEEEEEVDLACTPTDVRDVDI
T7 sequence (Q08345 19-913, species assumed): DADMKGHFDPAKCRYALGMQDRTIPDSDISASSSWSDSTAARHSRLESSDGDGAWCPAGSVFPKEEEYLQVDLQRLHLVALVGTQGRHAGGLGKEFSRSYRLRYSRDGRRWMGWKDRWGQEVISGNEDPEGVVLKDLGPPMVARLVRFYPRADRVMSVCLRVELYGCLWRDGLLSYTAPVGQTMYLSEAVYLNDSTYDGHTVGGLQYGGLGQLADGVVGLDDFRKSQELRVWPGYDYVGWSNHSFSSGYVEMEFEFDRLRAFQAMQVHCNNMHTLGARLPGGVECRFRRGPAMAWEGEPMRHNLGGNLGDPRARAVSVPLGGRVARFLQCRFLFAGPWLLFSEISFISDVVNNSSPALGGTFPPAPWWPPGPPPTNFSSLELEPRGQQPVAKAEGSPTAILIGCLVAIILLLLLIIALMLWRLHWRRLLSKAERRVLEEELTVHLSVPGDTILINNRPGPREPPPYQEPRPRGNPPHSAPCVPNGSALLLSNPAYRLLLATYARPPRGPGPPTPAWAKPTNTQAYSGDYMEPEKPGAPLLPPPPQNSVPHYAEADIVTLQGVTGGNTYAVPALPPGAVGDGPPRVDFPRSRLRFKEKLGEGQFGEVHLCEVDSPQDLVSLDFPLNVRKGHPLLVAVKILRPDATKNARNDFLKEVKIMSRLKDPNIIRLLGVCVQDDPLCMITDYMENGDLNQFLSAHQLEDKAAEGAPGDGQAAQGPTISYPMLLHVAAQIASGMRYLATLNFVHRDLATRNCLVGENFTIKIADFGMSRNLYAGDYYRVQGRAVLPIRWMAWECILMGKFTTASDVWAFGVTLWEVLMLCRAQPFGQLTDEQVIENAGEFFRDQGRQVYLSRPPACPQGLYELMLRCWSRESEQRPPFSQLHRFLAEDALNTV
Sequence of PKN1 (Q16512 whole entry, species assumed): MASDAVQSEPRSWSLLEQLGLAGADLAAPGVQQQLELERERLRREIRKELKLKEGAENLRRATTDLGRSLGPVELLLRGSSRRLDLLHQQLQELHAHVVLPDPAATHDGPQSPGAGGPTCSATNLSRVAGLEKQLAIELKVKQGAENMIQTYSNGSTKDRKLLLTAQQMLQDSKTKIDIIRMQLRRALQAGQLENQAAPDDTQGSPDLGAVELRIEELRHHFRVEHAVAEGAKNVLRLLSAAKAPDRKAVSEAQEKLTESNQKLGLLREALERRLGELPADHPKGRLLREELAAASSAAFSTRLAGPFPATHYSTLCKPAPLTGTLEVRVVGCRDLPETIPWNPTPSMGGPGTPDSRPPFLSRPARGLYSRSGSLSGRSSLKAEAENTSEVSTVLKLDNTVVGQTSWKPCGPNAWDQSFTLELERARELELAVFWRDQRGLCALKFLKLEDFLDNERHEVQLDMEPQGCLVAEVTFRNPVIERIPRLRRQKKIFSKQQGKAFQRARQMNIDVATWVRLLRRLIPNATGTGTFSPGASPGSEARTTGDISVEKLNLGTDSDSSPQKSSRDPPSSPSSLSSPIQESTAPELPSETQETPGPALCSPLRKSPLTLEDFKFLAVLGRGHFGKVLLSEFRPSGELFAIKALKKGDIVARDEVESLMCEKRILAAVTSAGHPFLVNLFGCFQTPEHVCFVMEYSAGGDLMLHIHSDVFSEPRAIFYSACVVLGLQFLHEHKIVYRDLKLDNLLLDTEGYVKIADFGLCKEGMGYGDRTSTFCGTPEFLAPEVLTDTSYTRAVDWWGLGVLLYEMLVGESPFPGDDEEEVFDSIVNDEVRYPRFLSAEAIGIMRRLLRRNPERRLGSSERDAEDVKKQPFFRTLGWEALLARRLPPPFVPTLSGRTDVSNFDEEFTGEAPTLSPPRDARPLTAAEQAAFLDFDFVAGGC
Sequence of BRAF(V599E) (P15056 whole entry V600E): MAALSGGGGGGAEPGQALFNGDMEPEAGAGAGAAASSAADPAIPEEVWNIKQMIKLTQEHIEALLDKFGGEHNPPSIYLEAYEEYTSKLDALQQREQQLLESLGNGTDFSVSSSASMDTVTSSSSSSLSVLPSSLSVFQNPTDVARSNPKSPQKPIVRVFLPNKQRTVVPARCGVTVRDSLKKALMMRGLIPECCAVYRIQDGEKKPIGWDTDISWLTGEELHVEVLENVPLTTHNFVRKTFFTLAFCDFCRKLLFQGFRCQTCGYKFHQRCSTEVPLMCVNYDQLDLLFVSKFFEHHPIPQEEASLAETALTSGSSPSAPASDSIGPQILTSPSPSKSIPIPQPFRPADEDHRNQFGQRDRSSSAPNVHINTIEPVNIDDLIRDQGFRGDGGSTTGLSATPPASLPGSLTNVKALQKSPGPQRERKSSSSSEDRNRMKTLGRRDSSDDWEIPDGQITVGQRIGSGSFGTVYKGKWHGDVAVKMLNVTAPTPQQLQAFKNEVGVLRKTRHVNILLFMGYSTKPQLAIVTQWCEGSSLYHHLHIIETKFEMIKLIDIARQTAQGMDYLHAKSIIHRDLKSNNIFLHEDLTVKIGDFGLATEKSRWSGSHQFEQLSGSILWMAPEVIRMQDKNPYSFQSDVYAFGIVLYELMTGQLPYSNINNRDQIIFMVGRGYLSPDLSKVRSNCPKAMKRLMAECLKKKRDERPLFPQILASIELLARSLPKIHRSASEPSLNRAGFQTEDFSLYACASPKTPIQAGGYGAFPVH

As usually defined, the inhibition is the drop in the measured response relative to a control, in per cent. In the case of `C=CC(=O)N1CCCC(c2c(F)cc(C(N)=O)c3[nH]c4c(c23)CCCCC4)C1` (single isomer, unassigned) [Compound 5-6], the inhibition at 1 µM at CDK6/D1 is -5.8%; on PKN1, 5.2%; on NTRK1/TRKA, -5%; at MAPKAPK3/MK3 it was 2.1%; at BRSK1, -30.9%; on FYNB, 21%. Moreover, the inhibition at 1 µM against ZAP70 is -22.5%; at EPHA2, -1.9%; against DDR1 it was 1.4%; at BRAF(V599E) it was -13.2%; on MAPK1/ERK2, -4.4%; at AURKC/AURC, -8.9%.
Regarding `C=CC(=O)N1CCC[C@@H](c2c(F)cc(C(N)=O)c3[nH]c4c(c23)CC2(CC4)CC2)C1` [Compound 6-2, (S)-5-(1-acryloylpiperidin-3-yl)-6-fluoro-1,2,4,9-tetrahydrospiro[carbazole-3,1′-cyclopropane]-8-carboxamide], the inhibition at 1 µM on CDK6/D1 was -4.3%; at PKN1, -10.2%; on NTRK1/TRKA, 19.6%; on MAPKAPK3/MK3 it was 1.5%; against BRSK1, -13%; against FYNB it was -20%. For the same compound, the inhibition at 1 µM against ZAP70 was 1.7%; against EPHA2, 9.5%; on DDR1, 24.5%; at BRAF(V599E), -4.9%; at MAPK1/ERK2, -3.8%; against AURKC/AURC, -2%.
For `C=CC(=O)N1CCC[C@@H](c2c(F)cc(C(N)=O)c3[nH]c4c(c23)CCC4)C1` [Compound 10-2, (S)-8-(1-acryloylpiperidin-3-yl)-7-fluoro-1,2,3,4-tetrahydrocyclo-penta[b]indole-5-carboxamide], the inhibition at 1 µM on CDK6/D1 is 12.8%; against PKN1, 12%; on NTRK1/TRKA, 21.6%; against MAPKAPK3/MK3, -42.3%; at BRSK1, 10.1%; on FYNB it was -36.2%. The inhibition at 1 µM at ZAP70 is -9.5%; against EPHA2, -9.6%; on DDR1, -41.1%; at BRAF(V599E) it was 4.3%; at MAPK1/ERK2 it was -8.8%; against AURKC/AURC it was 16.7%.
